Test results reported in article PMC11930985 (Nature Communications, 2025).
Where “and” joins values, the source holds several entries; their conditions need not be identical. Identical values can stand only once.

Key:
pAXL = target: T1, pAXL (Homo sapiens, UniProt P30530); test: CyTOF maximal pAXL inhibition in AML blasts vs bemcentinib concentration; type: in vivo
T1 construct: AML blasts were identified within the peripheral blood mononuclear cell population by CyTOF; endogenous in cells
T1 sequence (P30530 26-894): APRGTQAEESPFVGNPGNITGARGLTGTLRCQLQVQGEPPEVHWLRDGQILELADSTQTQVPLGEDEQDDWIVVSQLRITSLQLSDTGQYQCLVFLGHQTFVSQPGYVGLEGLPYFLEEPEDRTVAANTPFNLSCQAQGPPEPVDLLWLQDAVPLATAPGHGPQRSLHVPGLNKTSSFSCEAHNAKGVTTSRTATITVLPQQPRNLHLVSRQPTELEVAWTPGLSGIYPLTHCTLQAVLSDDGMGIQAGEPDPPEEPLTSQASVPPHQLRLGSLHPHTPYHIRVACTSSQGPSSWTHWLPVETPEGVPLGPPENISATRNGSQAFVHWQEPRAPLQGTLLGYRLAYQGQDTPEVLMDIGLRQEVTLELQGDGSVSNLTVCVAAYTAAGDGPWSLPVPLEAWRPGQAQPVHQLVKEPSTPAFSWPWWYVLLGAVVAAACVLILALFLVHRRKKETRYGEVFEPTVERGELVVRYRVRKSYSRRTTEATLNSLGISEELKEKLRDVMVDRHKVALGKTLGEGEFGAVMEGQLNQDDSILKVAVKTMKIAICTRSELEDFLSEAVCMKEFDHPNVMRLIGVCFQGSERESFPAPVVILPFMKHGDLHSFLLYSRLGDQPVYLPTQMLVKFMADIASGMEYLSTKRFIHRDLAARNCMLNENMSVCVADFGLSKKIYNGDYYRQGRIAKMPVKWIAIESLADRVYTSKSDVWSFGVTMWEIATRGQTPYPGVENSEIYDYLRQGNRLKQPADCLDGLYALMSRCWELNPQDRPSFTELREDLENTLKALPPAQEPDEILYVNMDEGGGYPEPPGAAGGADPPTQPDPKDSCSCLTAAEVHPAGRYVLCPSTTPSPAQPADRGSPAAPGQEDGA
Excerpt: Pharmacodynamic endpoints included the measurement of inhibition of pAXL, pERK, pAKT, pS6 and pSTAT1/3/5 in blast cells (defined as cells with abnormal surface marker expression as compared to healthy donor peripheral blood mononuclear cells and undefined/immature myeloid cells (defined as cells carrying myeloid markers but lacking distinguishing terminal differentiation markers). Mass cytometry time of flight (CyTOF) was used for the determination of the pharmacodynamic markers using a previously validated and tested panel of mass-tagged antibodies[39],[40]. The antibodies in the panel are listed in Supplementary Table 5. Briefly, fixed leukocytes from peripheral blood were barcoded using a 20-plex metal barcoding kit (Standard Biotools, Cell-ID 201060) according to manufacturer’s protocol, allowing all the samples from a single individual to be stained and analysed in parallel. All analysis runs included barcoded peripheral blood mononuclear cells (PBMCs) from at least one healthy donor and an identical barcoded reference sample (mix of PBMCs from six healthy donors). Barcoded cells (approx. 6 × 10^6) were treated with FC receptor block (Octagam, 1:1000 (Octapharma) in MaxPar cell staining buffer (CSB, Standard Biotools 201068), 15 min, room temperature) and treated with heparin (100 IU/mL in CSB, 20 min) to reduce non-specific staining artefacts. The sample was then stained with an optimised mixture of mass-tagged surface antibodies in a total staining volume of 600 μL (30 min, room temperature). Subsequently, the sample was permeabilized with cold (-20 °C) 100 % methanol (15 min, on ice), re-treated with heparin, and stained with a panel of intracellular mass-tagged antibodies (as described above). DNA was labelled with iridium-191/193 by incubation in 0.1 nM Ir-nucleic acid intercalator (Standard Biotools 201192) diluted in MaxPar PBS (Standard biotools 201058) containing 4% PFA overnight at 4 °C. […]
For each population, marker, and sample, the 95th percentile of the non-transformed expression values was calculated. […]

Hoxa9/Meis1 leukemia = test system: Hoxa9/Meis1 leukemia; parameters: method as in Ben-Batalla et al., 2013; details: ref Ben-Batalla et al., 2013; cited from earlier work
healthy male subjects = test system: healthy male subjects; parameters: method as in Protocol BGBC001; details: ref Protocol BGBC001; cited from earlier work

Nc1nc(Nc2ccc3c(c2)CC[C@@H](N2CCCC2)CC3)nn1-c1cc2c(nn1)-c1ccccc1CCC2 [Bemcentinib]
Maximum inhibition (percent) pAXL(Y779) (pAXL; Figure 4, individual patients (Pt 1-13)): 14.7% and 1.3% and 25.7% and 0.4% and 26.3% and 2.9% and 13.4% and 0% and 16.1% and 15.5% and 11.4% and 7% | Plasma concentrations at which inhibition of pAXL was seen (pAXL; peripheral blood, DE cohort): 45–347 ng/mL | Time to intracellular phospho-signaling changes vs pre-treatment (pAXL; peripheral blood, DE cohort): ≤ 4 h | Survival (Hoxa9/Meis1 leukemia): prolong | Maximum QTcF recorded (severity) (healthy male subjects): Grade I
